Reference: ChEMBL document CHEMBL2062508, “Lasionectrin, a naphthopyrone from a Lasionectria sp” (J Nat Prod, 2012)

System: Plasmodium falciparum
Assay: Antiplasmodial activity against Plasmodium falciparum 3D7 infected in human erythrocytes by lactate dehydrogenase assay
Assay type: functional, organism-based

IC50: 11 µM
Compound: CCC[C@@H]1C[C@H]2OC(=O)c3c(cc4cc(OC)cc(O)c4c3O)[C@H]2O1 [LASIONECTRIN]
